Laboratory results reported in patent US7851617B2, “Indole derivatives” (Mitsubishi Tanabe Pharma Corporation, priority 2006, dated 2010).
Read-outs that look alike come from different tables or passages of the source.

Key:
[1] = biological target: T1, human SGLT2 (Homo sapiens, UniProt P31639); assay: Assay for SGLT2 inhibition (14C-AMG uptake); type: cell-based
T1 construct: expressed in transfected cells; host or cells: CHOK1 cells (selected with Geneticin)
T1 sequence (P31639 1-672): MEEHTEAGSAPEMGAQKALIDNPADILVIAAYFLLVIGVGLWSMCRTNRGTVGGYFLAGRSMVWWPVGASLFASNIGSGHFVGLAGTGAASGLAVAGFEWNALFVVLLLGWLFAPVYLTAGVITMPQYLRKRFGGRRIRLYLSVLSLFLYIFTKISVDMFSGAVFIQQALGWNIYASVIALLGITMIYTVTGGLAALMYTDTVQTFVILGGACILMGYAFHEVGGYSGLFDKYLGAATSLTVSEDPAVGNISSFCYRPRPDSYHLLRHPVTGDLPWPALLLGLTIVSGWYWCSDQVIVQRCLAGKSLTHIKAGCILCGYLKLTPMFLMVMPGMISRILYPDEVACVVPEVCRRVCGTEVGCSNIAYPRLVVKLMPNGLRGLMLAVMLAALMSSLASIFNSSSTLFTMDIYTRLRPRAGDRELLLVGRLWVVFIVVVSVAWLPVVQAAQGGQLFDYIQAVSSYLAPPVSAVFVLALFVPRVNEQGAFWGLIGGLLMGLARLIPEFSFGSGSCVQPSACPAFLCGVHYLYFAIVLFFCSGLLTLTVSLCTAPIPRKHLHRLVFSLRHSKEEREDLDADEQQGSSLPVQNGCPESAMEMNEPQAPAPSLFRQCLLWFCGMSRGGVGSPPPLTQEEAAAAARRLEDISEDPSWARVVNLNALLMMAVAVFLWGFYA
Experimental: Compounds described in the above examples were used for the SGLT2 inhibition assay. CHOK1 cells expressing human SGLT2 were seeded in 24-well plates at a density of 400,000 cells/well in F-12 nutrient mixture (Ham's F-12) containing 10% fetal bovine serum, 400 μg/ml Geneticin, 50 units/ml sodium penicillin G (Gibco-BRL) and 50 μg/ml streptomycin sulfate. After 2 days of culture at 37° C. in a humidified atmosphere containing 5% CO2, cells were washed once with the assay buffer (137 mM NaCl, 5 mM KCl, 1 mM CaCl2, 1 mM MgCl2, 50 mM Hepes, and 20 mM Tris, pH 7.4) and incubated with 250 μl of the buffer containing test compounds for 10 min at 37° C. Test compounds were dissolved in DMSO. The final concentration of DMSO was 0.5%. The transport reaction was initiated by addition of 50 μl [^14C]-methyl-α-D-glucopyranoside (^14C-AMG) solution (final concentration, 0.5 mM). After incubation for 2 hours at 37° C., the uptake was stopped by aspiration of the incubation mixture, the cells were washed three times with ice-cold PBS. Then, cells were solubilized with 0.3 N NaOH and aliquots were taken for determination of radioactivity by a liquid scintillation counter. Nonspecific AMG uptake was defined as that which occurred in the presence of 100 μM of phlorizin, a specific inhibitor of sodium-dependent glucose cotransporter. Specific uptake was normalized for the protein concentrations measured by the method of Bradford. The 50% inhibitory concentration (IC50) values were calculated from dose-response curves by least square method.

[2] = test system: Sprague-Dawley (SD) rats; assay: Urinary glucose excretion test in rats; type: in vivo, rat; settings: male SD rats, 30 mg/kg by oral gavage, urine collected for 24 hours, daily amount of glucose excreted per individual
Experimental: Compounds described in the above examples were used for the Urinary glucose excretion test in rats.
6-week-old male Sprague-Dawley (SD) rats were housed in individual metabolic cages with free access to food and water from 2 days prior to the experiment. On the morning of the experiment, rats were administered vehicle (0.2% carboxymethyl cellulose solution containing 0.2% Tween80) or test compounds (30 mg/kg) by oral gavage at a volume of 10 ml/kg. Then, urine of the rat was collected for 24 hours, and the urine volume was measured. Subsequently, the glucose concentration in urine was quantified using the enzymatic assay kit and the daily amount of glucose excreted in urine per individual was calculated.

[3] = CHOK1 cells expressing human SGLT2, 14C-AMG uptake, 2 hours at 37° C., read-out: IC50

SMILES	IC50 [1, 3] [nM]	Urinary glucose [2]	IC50 [1] [nM]
OC[C@H]1O[C@@H](n2cc(Cc3ccc(C4CC4)cc3)c3c(Cl)cc(F)cc32)[C@H](O)[C@@H](O)[C@@H]1O [Example 4, 4-Chloro-3-(4-cyclopropylphenylmethyl)-6-fluoro-1-(β-D-gluco-pyranosyl) indole]	3.6	C (2000 mg>C)	
OC[C@H]1O[C@@H](n2cc(Cc3ccc(C4CC4)cc3)c3c(F)cccc32)[C@H](O)[C@@H](O)[C@@H]1O [Example 1, 3-(4-Cyclopropylphenylmethyl)-4-fluoro-1-(β-D-gluco-pyranosyl)indole]	1.9	B (2400 mg>B≧2000 mg)	
OC[C@H]1O[C@@H](n2cc(Cc3ccc(C4CC4)cc3)c3c(Cl)cccc32)[C@H](O)[C@@H](O)[C@@H]1O [Example 2, 4-Chloro-3-(4-cyclopropylphenyl-methyl)-1-(β-D-glucopyranosyl)indole]		A (A≧2400 mg)	2.3
OC[C@H]1O[C@@H](n2cc(Cc3ccc(C4CC4)cc3)c3c(F)cc(F)cc32)[C@H](O)[C@@H](O)[C@@H]1O [Example 3, 3-(4-Cyclopropylphenylmethyl)-4,6-difluoro-1-(β-D-gluco-pyranosyl) indole]	2.8	B (2400 mg>B≧2000 mg)	
